Measured values as given in US20150230462A1, “METHODS FOR IMPROVING GERMINATION AND STRESS TOLERANCE CHARACTERISTICS WITH JASMONATES” (New Biology, Inc., priority 2014, published 2015).
“Also recorded” adds a separate entry of the source.

Assays:
[1] = tested on: Seeds of tomato (‘Crimson Carmello’); assay: Germinating tomato seeds soaked 1 hour in MDHJ: percent germination, radicle length (Example 26); format: in vivo; conditions: for Percent of Tomato Seeds Germinated, Day 5 / Percent of Tomato Seeds Germinated, Day 7: 1 hour soak of germinating seeds
Experimental: Seeds of tomato (‘Crimson Carmello’) were soaked in water for 24 hours. After 24 hours, seeds were transferred to a solution containing water only (untreated control or UTC), 0.05 mM MDHJ, or 0.5 mM MDHJ in water. There were 8-9 seeds per treatment. After soaking for 1 hour, the seeds were rinsed in water and placed between two layers of water-moistened paper towel in a clear plastic covered tray. The trays were placed at room temperature with normal daylight conditions and allowed to germinate. At day 5 and 7, the percent of germinated seeds was obtained. At days 5 and 7, radicle length was measured in tomato seedlings (no coleoptiles were showing yet). At Day 5 and 7, radicle length was measured in millimeters.

[2] = tested on: Seeds of Redina lettuce (Lechuga redina); assay: Redina lettuce seeds treated with MDHJ soak solutions with wetting agent (Example 4); format: in vivo
Experimental: Non-germinated seeds of the hybrid corn varietal “Early Sun Glow” were treated with MDHJ by soaking for 24 hours in 50 mL conical vessels in one of four treatment solutions. During the soak, the seeds spent 12 hours in typical lighting conditions and 12 hours in darkness. The four treatment solutions are set forth below in Table 5. In Table 5, COCO-WET® is a wetting agent sold by Spray-N-Grow, Inc. of Rockport, Tex.
Seeds of Redina lettuce (Lechuga redina) were treated with MDHJ according to the protocol of Example 2.

Sugar snap pea seeds = Sugar snap pea seeds treated with MDHJ soak solutions with wetting agent: seeds germinated (Example 3); format: in vivo
Experimental: Non-germinated seeds of the hybrid corn varietal “Early Sun Glow” were treated with MDHJ by soaking for 24 hours in 50 mL conical vessels in one of four treatment solutions. During the soak, the seeds spent 12 hours in typical lighting conditions and 12 hours in darkness. The four treatment solutions are set forth below in Table 5. In Table 5, COCO-WET® is a wetting agent sold by Spray-N-Grow, Inc. of Rockport, Tex. On Day 2, 4 2-inch pots were planted with three seeds each, for a total of 12 seeds per treatment. Germination of the potted seeds was measured at days 8 and 15. Sugar snap pea seeds were treated according to the procedure in Example 2. The number of seeds germinated were counted at days 8 and 15 after treatment.

[3] = tested on: Seeds of corn (‘Sugar Pearl’); assay: Planted germinating corn seeds, soil sprayed with MDHJ: seedling emergence and plant height (Example 29); format: in vivo; conditions: for Percent Seedling Emergence: 12.5 ml/pot sprayed on soil two days after planting, 21 days after planting, n=16
Experimental: Seeds of corn (‘Sugar Pearl’) were soaked in water for 48 hours and subsequently planted 1-inch deep in potting soil in 6-inch pots. Two days after planting, the soil was sprayed with 12.5 ml/pot of 0 mM (UTC), 0.75 mM or 7.5 mM MDHJ. There were 8 seeds planted per pot and two pots for each treatment (n=16). Germination was recorded 21 days after planting, and plant height measured 24 days after planting.

[4] = tested on: wheat (Triticum aestivum ‘Liquid Sunshine’) seeds; assay: Germinating wheat seeds (48 hours water soak) soaked 1 hour in MDHJ: germination at Day 6 (Example 28); format: in vivo; conditions: for Percent of Seeds Germinated at Day 6, Wheat: 1 hour soak after 48 hours in water
Experimental: (§1) Seeds of wheat (Triticum aestivum ‘Liquid Sunshine’), corn (‘Sugar Pearl’) and swiss chard (‘Peppermint Stick’) were soaked in water for 48 hours, immediately followed by a 1 hour soak in no MDHJ (untreated control, or UTC), 1.5 mM MDHJ or 7.5 mM MDHJ. Seeds were then rinsed and placed between sheets of moistened paper towel and surrounded by a saran wrap tent to keep the germinating environment moist. There were 13-25 seeds for each treatment of each plant. At Day 6, seed germination was measured for each plant.

[5] = tested on: Seeds of wheat (Triticum aestivum ‘Liquid Sunshine’); assay: Germinating wheat seeds soaked 1 hour in MDHJ: percent germination, coleoptile length (Example 27); format: in vivo; conditions: for Percent of Wheat Seeds Germinated at Day 7: 1 hour soak after 24 hours in water
Experimental: Seeds of wheat (Triticum aestivum ‘Liquid Sunshine’) were soaked in water for 24 hours. After 24 hours, seeds were transferred to a solution containing water only (untreated control or UTC), 0.05 mM MDHJ, 0.5 mM MDHJ, or 5.0 mM MDHJ in water. There were 16-20 seeds per treatment. After soaking for 1 hour, the seeds were rinsed in water and placed between two layers of water-moistened paper towel in a clear plastic covered tray. The trays were placed at room temperature with normal daylight conditions and allowed to germinate. At day 7, the percent of germinated seeds was obtained and coleoptile length was measured.

[6] = tested on: swiss chard (‘Peppermint Stick’) seeds; assay: Germinating swiss chard seeds (48 hours water soak) soaked 1 hour in MDHJ: germination at Day 6 (Example 28); format: in vivo; conditions: for Percent of Seeds Germinated at Day 6, Swiss Chard: 1 hour soak after 48 hours in water
Experimental: as §1

[7] = tested on: corn (‘Sugar Pearl’) seeds; assay: Germinating corn seeds (48 hours water soak) soaked 1 hour in MDHJ: germination at Day 6 (Example 28); format: in vivo; conditions: for Percent of Seeds Germinated at Day 6, Corn: 1 hour soak after 48 hours in water
Experimental: as §1

plants [8] = conditions: U.S. Pat. Nos. 8,013,226 and 8,563,839; cited from earlier work
plants [9] = conditions: U.S. Patent Application Publication No. 2009/0133166; cited from earlier work
plants [10] = conditions: U.S. Patent Application Publication No. 2009/0082453; cited from earlier work
[11] = tested on: non-germinated seeds and resulting plants; conditions: U.S. Pat. No. 8,115,053 to Roberts et al.; treating non-germinated seeds; cited from earlier work
seed germination = conditions: Norastehnia et al., Gen. Appl. Plant Physiology, 2007; cited from earlier work

## CCCCCC1C(=O)CCC1CC(=O)OC (centres unmarked) [MDHJ, methyl dihydrojasmonate]
[1]; 0.05 mM MDHJ
  Percent of Tomato Seeds Germinated, Day 5: 87.5%
  Percent of Tomato Seeds Germinated, Day 7: 100%
[1]; 0.5 mM MDHJ
  Seed germination percentage: enhanced
[1]; 0.50 mM MDHJ
  Percent of Tomato Seeds Germinated, Day 5: 100%
  Percent of Tomato Seeds Germinated, Day 7: 100%
[1]; 0.5 mM MDHJ, by day 7, FIG. 4
  radicle length compared to untreated seeds: increase in radicle length compared to untreated seeds
[2]; 15 days after treatment, MDHJ at concentrations below 1.5 mM
  adverse effects on germination: no adverse effects on germination; also recorded: not to adversely affect germination
[2]; in vivo
  germination benefit from MDHJ exposure: no germination benefit was seen
Sugar snap pea seeds; MDHJ concentrations under 1.5 mM
  adverse effect on germination: not to adversely affect germination
Sugar snap pea seeds; in vivo
  germination benefit from MDHJ exposure: no germination benefit was seen
[3]; 0.75 mM MDHJ
  Percent Seedling Emergence: 63%
[3]; 0.75 mM-treated seed
  germination compared to the untreated control: increased germination
[3]; 7.50 mM MDHJ
  Percent Seedling Emergence: 50%
[3]; 7.5 mM treated seed
  germination compared to the untreated control: no germination inhibition
[3]; FIG. 6, 24 days after planting, 0.75 mM or 7.5 mM
  growth (plant height, words): did not inhibit growth
[4]; 1.5 mM MDHJ
  Percent of Seeds Germinated at Day 6, Wheat: 100%
[4]; 1.5 mM and 7.5 mM MDHJ
  General Observation, Wheat: seedlings were stunted
[4]; 7.5 mM MDHJ
  Percent of Seeds Germinated at Day 6, Wheat: 100%
[5]; 0.05 mM MDHJ
  seed germination percentage compared to the untreated control: increased seed germination percentage
  Percent of Wheat Seeds Germinated at Day 7: 95%
[5]; 0.05 mM MDHJ, FIG. 5
  coleoptile length: no decrease in coleoptile length
[5]; 0.50 mM MDHJ
  Percent of Wheat Seeds Germinated at Day 7: 53%
[5]; 0.5 mM and above, FIG. 5
  germination and coleoptile growth: inhibition of germination and coleoptile growth
[5]; 5.00 mM MDHJ
  Percent of Wheat Seeds Germinated at Day 7: 55%
[5]; 5.0 mM treatment
  coleoptiles and radicles: too short to measure
[5]; concentrations below 0.5 mM, germinating wheat in paper towel
  rate of seed germination in wheat: beneficial for improved rate of seed germination
[6]; 1.5 mM MDHJ
  germination: improved
  Percent of Seeds Germinated at Day 6, Swiss Chard: 77%
[6]; 7.5 mM MDHJ
  Percent of Seeds Germinated at Day 6, Swiss Chard: 58%
[7]; 1.5 mM MDHJ
  germination: improved
  Percent of Seeds Germinated at Day 6, Corn: 54%
[7]; 7.5 mM MDHJ
  Percent of Seeds Germinated at Day 6, Corn: 0.1%
Plants [8]
  chlorosis and necrosis of leaf senescence: can reduce the chlorosis and necrosis of leaf senescence
Plants [9]
  flowering characteristics: improves flowering characteristics
Plants [10]
  biotic attack: effective in reducing biotic attack and disease in plants; also recorded: surprisingly effective at preventing biotic attack

## CC/C=C\CC1C(=O)CCC1CC(=O)O (centres unmarked) [jasmonic acid, 2-(3-oxo-2-(pent-2-enyl)cyclopentyl)acetic acid]
[11]
  pest resistance in the resulting plants: increases pest resistance in the resulting plants up to 10 weeks after sowing

## CC/C=C\CC1C(=O)CCC1CC(=O)OC (centres unmarked) [methyl jasmonate]
Seed germination
  seed germination: inhibits seed germination
[11]
  pest resistance in the resulting plants: increases pest resistance in the resulting plants up to 10 weeks after sowing
